Measurements: patent US11654096B2 (L'OREAL, priority 2017, dated 2023)
“And” between values parts separate entries of the source, which are not always exact repeats. Identical values can stand only once.

Assays:
Assay type in all cases: cell-based
[1] = system: normal human dermal fibroblasts (NHDFs); assay: Neosynthesis of total GAGs by NHDFs, [3H]-glucosamine incorporation; details: for effect on the neosynthesis of the total GAGs by the NHDFs (in words): tested at 10 and 100 μM; for % Control / Mean (cpm) / [3H]-glucosamine (cpm): total GAGs, NHDFs; for [3H]-glucosamine (cpm): single replicates
Method: (§1) The effects of the compounds on the neosynthesis of total and sulfated glycosaminoglycans (GAGs) were studied on two cell models, normal human epidermal keratinocytes (NHEKs) and normal human dermal fibroblasts (NHDFs). The effects of these compounds were evaluated by measuring: • the incorporation of [3H]-glucosamine into the total GAGs neosynthesized by NHEKs and by NHDFs, • the incorporation of [35S]-sulfate into the sulfated GAGs neosynthesized by NHEKs and by NHDFs.
(§2) The fibroblasts were seeded into wells and cultured in culture medium for 24 hours. The medium was then replaced with culture medium containing or not containing (controt) the compounds to be tested or the reference (TGF-β at 10 ng/ml), then the cells were incubated for 72 hours with the addition of the [35S]-sulfate radioactive label (sulfated GAGs) or of the [3H]-glucosamine radioactive label (total GAGs) for the final 24 hours of incubation.
(§3) At the end of the incubation, the glycosaminoglycans were extracted from the cells with a chaotropic buffer. The GAGs were then purified by ion exchange chromatography: adsorption of the anionic molecules on Q-Sepharose beads and desorption of the molecules of low or medium anionic nature, with a suitable solution.
(§4) The radioactivity incorporated into the molecules left on the support (GAGs, predominantly) was measured by liquid scintillation.
(§5) All the experimental conditions were performed in n=3.
(§6) The inter-group comparisons were performed using Student's non-paired two-sided t-test. The statistical analyses can be interpreted if n≥5; however, for n<5, the data calculated are provided only by way of indication.

[2] = system: normal human epidermal keratinocytes (NHEKs); assay: Neosynthesis of total GAGs by NHEKs, [3H]-glucosamine incorporation; details: for % Control / Mean (cpm) / [3H]-glucosamine (cpm): total GAGs, NHEKs; for [3H]-glucosamine (cpm): single replicates
Method: as §1
(§7) The keratinocytes were seeded into wells and cultured in culture medium for 24 hours. The medium was then replaced with culture medium containing or not containing (control) the compounds to be tested or the reference (4-nitrophenyl β-D-xylopyranoside at 300 μM), then the cells were incubated for 72 hours with the addition of the [3H]-glucosamine radioactive label (total GAGs) or of the [35S]-sulfate radioactive label (sulfated GAGs) for the final 24 hours of incubation.
as §3, §4, §5, §6

[3] = system: normal human dermal fibroblasts (NHDFs); assay: Neosynthesis of sulfated GAGs by NHDFs, [35S]-sulfate incorporation; details: for % Control / Mean (cpm) / [35S]-Sulfate (cpm): sulfated GAGs, NHDFs; for [35S]-Sulfate (cpm): single replicates
Method: as §1, §2, §3, §4, §5, §6

[4] = system: normal human epidermal keratinocytes (NHEKs); assay: Neosynthesis of sulfated GAGs by NHEKs, [35S]-sulfate incorporation; details: for % Control / Mean (cpm) / [35S]-Sulfate (cpm): sulfated GAGs, NHEKs; for [35S]-Sulfate (cpm): single replicates
Method: as §1, §7, §3, §4, §5, §6

SMILES: Oc1ccc(C=Cc2cc(O)cc(O)c2)cc1 [Resveratrol]
- effect on the neosynthesis of the total GAGs by the NHDFs (in words) [1]: overall inhibited
- % Control ([1]; campaign 2, 10 μM): 98%
- Mean (cpm) ([1]; campaign 2, 10 μM): 1534 cpm
- [3H]-glucosamine (cpm) ([1]; campaign 2, 10 μM): 1439 cpm and 1533 cpm and 1630 cpm
- % Control ([1]; campaign 2, 100 μM): 86%
- Mean (cpm) ([1]; campaign 2, 100 μM): 1339 cpm
- [3H]-glucosamine (cpm) ([1]; campaign 2, 100 μM): 1253 cpm and 1360 cpm and 1404 cpm
- effect on the neosynthesis of the total GAGs by the NHEKs (in words) ([2]; tested at 10 and 100 μM): inhibited, in a concentration-dependent manner
- % Control ([2]; campaign 1, 10 μM): 64%
- Mean (cpm) ([2]; campaign 1, 10 μM): 8328 cpm
- [3H]-glucosamine (cpm) ([2]; campaign 1, 10 μM): 7566 cpm and 8537 cpm and 8880 cpm
- % Control ([2]; campaign 1, 100 μM): 13%
- Mean (cpm) ([2]; campaign 1, 100 μM): 1743 cpm
- [3H]-glucosamine (cpm) ([2]; campaign 1, 100 μM): 1509 cpm and 1754 cpm and 1967 cpm
- % Control ([2]; campaign 2, 1 μM): 113%
- Mean (cpm) ([2]; campaign 2, 1 μM): 9628 cpm
- [3H]-glucosamine (cpm) ([2]; campaign 2, 1 μM): 10734 cpm and 10012 cpm and 8137 cpm
- % Control ([2]; campaign 2, 10 μM): 86%
- Mean (cpm) ([2]; campaign 2, 10 μM): 7347 cpm
- [3H]-glucosamine (cpm) ([2]; campaign 2, 10 μM): 6772 cpm and 7143 cpm and 8126 cpm
- % Control ([3]; campaign 1, 10 μM): 93%
- Mean (cpm) ([3]; campaign 1, 10 μM): 1527 cpm
- [35S]-Sulfate (cpm) ([3]; campaign 1, 10 μM): 1506 cpm and 1556 cpm and 1519 cpm
- % Control ([3]; campaign 1, 100 μM): 62%
- Mean (cpm) ([3]; campaign 1, 100 μM): 1019 cpm
- [35S]-Sulfate (cpm) ([3]; campaign 1, 100 μM): 967 cpm and 1045 cpm and 1046 cpm
- % Control ([3]; campaign 2, 10 μM): 101%
- Mean (cpm) ([3]; campaign 2, 10 μM): 571 cpm
- [35S]-Sulfate (cpm) ([3]; campaign 2, 10 μM): 613 cpm and 513 cpm and 586 cpm
- % Control ([3]; campaign 2, 100 μM): 54%
- Mean (cpm) ([3]; campaign 2, 100 μM): 305 cpm
- [35S]-Sulfate (cpm) ([3]; campaign 2, 100 μM): 355 cpm and 283 cpm and 276 cpm
- effect on the neosynthesis of the sulfated GAGs by the NHDFs (in words) ([3]; tested at 10 and 100 μM): overall inhibited
- % Control ([4]; campaign 1, 10 μM): 77%
- Mean (cpm) ([4]; campaign 1, 10 μM): 5254 cpm
- [35S]-Sulfate (cpm) ([4]; campaign 1, 10 μM): 5238 cpm and 5506 cpm and 5018 cpm
- % Control ([4]; campaign 1, 100 μM): 27%
- Mean (cpm) ([4]; campaign 1, 100 μM): 1802 cpm
- [35S]-Sulfate (cpm) ([4]; campaign 1, 100 μM): 1836 cpm and 1725 cpm and 1845 cpm
- Mean (cpm) ([4]; campaign 2, 1 μM): 6530 cpm
- [35S]-Sulfate (cpm) ([4]; campaign 2, 1 μM): 6885 cpm and 6817 cpm and 5888 cpm
- % Control ([4]; campaign 2, 10 μM): 94%
- Mean (cpm) ([4]; campaign 2, 10 μM): 4973 cpm
- [35S]-Sulfate (cpm) ([4]; campaign 2, 10 μM): 5137 cpm and 4981 cpm and 4802 cpm
- effect on the neosynthesis of the sulfated GAGs by the NHEKs (in words) ([4]; tested at 10 and 100 μM): inhibited, in a concentration-dependent manner

SMILES: Oc1cc(O)cc(/C=C/c2ccc(O[C@@H]3OC[C@@H](O)[C@H](O)[C@H]3O)cc2)c1 [Compound 2a, 4-[(E)-2-(3,5-dihydroxy-phenyl)ethenyl]phenyl β-D-xylopyranoside]
- effect on the neosynthesis of the total GAGs by the NHDFs (in words) [1]: stimulated in a concentration-dependent manner
- % Control ([1]; campaign 2, 10 μM): 104%
- Mean (cpm) ([1]; campaign 2, 10 μM): 1624 cpm
- [3H]-glucosamine (cpm) ([1]; campaign 2, 10 μM): 1758 cpm and 1479 cpm and 1636 cpm
- % Control ([1]; campaign 2, 100 μM): 126%
- Mean (cpm) ([1]; campaign 2, 100 μM): 1973 cpm
- [3H]-glucosamine (cpm) ([1]; campaign 2, 100 μM): 1958 cpm and 1959 cpm and 2003 cpm
- effect on the neosynthesis of the total GAGs by the NHEKs (in words) ([2]; tested at 1 and 10 μM): stimulated in a concentration-dependent manner
- % Control ([2]; campaign 2, 1 μM): 120%
- Mean (cpm) ([2]; campaign 2, 1 μM): 10215 cpm
- [3H]-glucosamine (cpm) ([2]; campaign 2, 1 μM): 9472 cpm and 10133 cpm and 11041 cpm
- % Control ([2]; campaign 2, 10 μM): 151%
- Mean (cpm) ([2]; campaign 2, 10 μM): 12844 cpm
- [3H]-glucosamine (cpm) ([2]; campaign 2, 10 μM): 11913 cpm and 12452 cpm and 14167 cpm
- % Control ([3]; campaign 2, 10 μM): 141%
- Mean (cpm) ([3]; campaign 2, 10 μM): 795 cpm
- [35S]-Sulfate (cpm) ([3]; campaign 2, 10 μM): 765 cpm and 835 cpm and 786 cpm
- % Control ([3]; campaign 2, 100 μM): 533%
- Mean (cpm) ([3]; campaign 2, 100 μM): 3015 cpm
- [35S]-Sulfate (cpm) ([3]; campaign 2, 100 μM): 2858 cpm and 3230 cpm and 2958 cpm
- % Control ([4]; campaign 2, 1 μM): 114%
- Mean (cpm) ([4]; campaign 2, 1 μM): 6073 cpm
- [35S]-Sulfate (cpm) ([4]; campaign 2, 1 μM): 5974 cpm and 6365 cpm and 5879 cpm
- % Control ([4]; campaign 2, 10 μM): 240%
- Mean (cpm) ([4]; campaign 2, 10 μM): 12748 cpm
- [35S]-Sulfate (cpm) ([4]; campaign 2, 10 μM): 11209 cpm and 13332 cpm and 13703 cpm
- effect on the neosynthesis of the sulfated GAGs by the NHEKs (in words) ([4]; tested at 1 and 10 μM): stimulated in a concentration-dependent manner
